Assay results as given in a compilation of properties of binary mixtures (doi:10.1021/acs.iecr.1c02970).

Assay: xn = mol fraction of the nth substance listed
Settings: 100 kPa, x2 = 0

## O + CC[n+]1ccn(C)c1.CS(=O)(=O)[O-]
293.15 K
  viscosity: 1.002 mPa·s
303.15 K
  electrical conductivity: 0.0001 S/m
  viscosity: 0.797 mPa·s
313.15 K
  electrical conductivity: 0.0002 S/m
  speed of sound: 1529.2 m/s
  viscosity: 0.653 mPa·s
318.15 K
  speed of sound: 1536.7 m/s
343.15 K
  electrical conductivity: 0.0018 S/m
  speed of sound: 1555.1 m/s
  viscosity: 0.4039 mPa·s
353.15 K
  electrical conductivity: 0.0023 S/m
  viscosity: 0.3544 mPa·s
